Measured values reported in publication PMC11876601 (Molecular Systems Biology, 2025).
Read-outs that look alike come from different tables or passages of the source. Each block holds one compound with its values, some of them ahead of it.

Tests used:
[1] = test system: Capan-1 cells; assay: Drug combination viability screen (ATPlite, 72 h); type: cell-based, human; parameters: AUC: unit not given beside the values; Reponse: unit not given here; details: for EC50: Homo sapiens, CAPAN-1;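 on AUC: area under vehicle-normalized viability curve scaled 0 to 100 percent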;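 on Curve bottom: fraction of vehicle control viability from four-parameter log-logistic fit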
Experimental: (§1) Cell viability was assessed by measuring ATP levels to indicate metabolic activity.
(§2) Afterward, small amounts were transferred to 384-well intermediate plates (Greiner Bio-One GmbH, Germany). […] For drug combination screening, 1000 to 5000 cells were seeded into 384-well plates (CulturPlate™, Perkin Elmer, MA, USA) using a Multidrop™ Combi Reagent Dispenser (Thermo Scientific, MA, USA) in 50 µl medium per well 24 h prior to drug treatment (seeding densities see Appendix Table S1). […] The final DMSO concentration in each well was 0.2%. […] Eight wells per plate without library drug served as negative controls, and sixteen wells per plate containing 5 µM Staurosporine served as positive controls. Control plates not containing any drug were used to correct for incubation effects, and data quality was assessed by calculation of Z-prime of positive and negative controls according to1 Z-prime=1−3SDpos+3SDneg/[…] where SD is the standard deviation. […] Dose–response curves from the experimental and hypothetical data were compared, and shifts in AUC were used to describe combination effects (AUC∆ = AUChypothetical − AUCexperimental). […] Only combinations with R^2 > 0.8 in both conditions were considered in the synergy analysis.

[2] = test system: Dan-G cells; assay: Drug combination viability screen (ATPlite, 72 h); type: cell-based, human; parameters: AUC: unit not given beside the values; Reponse: unit not given here; details: for EC50: Homo sapiens;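 on AUC: area under vehicle-normalized viability curve scaled 0 to 100 percent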;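 on Curve bottom: fraction of vehicle control viability from four-parameter log-logistic fit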
Experimental: as §1, §2

[3] = test system: FAMPAC cells; assay: Drug combination viability screen (ATPlite, 72 h); type: cell-based, human; parameters: AUC: unit not given beside the values; Reponse: unit not given here; details: for EC50: Homo sapiens;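 on AUC: area under vehicle-normalized viability curve scaled 0 to 100 percent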;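 on Curve bottom: fraction of vehicle control viability from four-parameter log-logistic fit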
Experimental: as §1, §2

[4] = test system: CLK2; parameters: method as in Reinecke et al. (2023); details: CLK2, 5 cell line mix lysate, Kinobeads ε, ref Reinecke et al. (2023), cited from earlier work
[5] = test system: PRKAG1; parameters: method as in Klaeger et al. (2017); details: lysate 4 cell line mix (Colo205, K-562, MV-4-11, and SK-N-BE(2)), Kinobeads y, ref Klaeger et al. (2017); cited from earlier work
[6] = test system: CDK2; parameters: method as in Klaeger et al. (2017); details: CDK2, 4 cell line mix lysate, Kinobeads y, ref Klaeger et al. (2017); cited from earlier work
[7] = biological target: several subunits of CSNK2; assay: Kinobeads competition pulldown in AsPC-1 lysate; type: binding, human; details: read-out: KDapp
Experimental: This was followed by incubation with Kinobeads ε (17.5 µl of settled beads) for 30 min at 4 °C to enrich kinases. […] Enriched proteins were reduced with 50 mM DTT in 8 M urea, 40 mM Tris-HCl, pH 7.4 for 30 min at room temperature, and alkylated with 55 mM chloroacetamide. After reducing the urea concentration to 1–2 M, proteins were digested with trypsin at 37 °C for 16 h. Subsequently, eluted peptides were desalted using SepPak tC18 µElution plates (Waters), freeze-dried by vacuum centrifugation, and stored at −20 °C.
For LC-MS/MS, dried peptides were reconstituted in 0.1% formic acid and analyzed on a Dionex Ultimate3000 nano HPLC (Thermo Scientific) coupled to an Orbitrap Fusion Tribrid mass spectrometer (Thermo Scientific), which was run in data-dependent mode. […]
Oxidized methionine and N-terminal acetylation were set as variable modification, and cysteine carbamidomethylation was set as fixed modification. Label-free quantification (LFQ) and match-between-runs were enabled. […]
Proteins were filtered by potential contaminants, reversed hits and proteins identified only by site. Residual binding of proteins was calculated from LFQ intensities as the ratio between drug doses and vehicle. […] Only kinases quantified with at least 4 unique peptides in the vehicle experiment were considered. […]

SMILES: Nc1ccn([C@@H]2O[C@H](CO)[C@@H](O)C2(F)F)c(=O)n1 [GEM, Gemcitabine]
Reponse ([1]; Capan-1, R1, 13.72 nM): 1419520 | Reponse ([1]; Capan-1, R1, 41.15 nM): 1052200 | Reponse ([1]; Capan-1, R1, […] nM): 1039880 | Reponse ([1]; Capan-1, R1, 370.37 nM): 891520 | Reponse ([1]; Capan-1, R1, 1111.11 nM): 819880 | Reponse ([1]; Capan-1, R1, 3333.33 nM): 826400 | Reponse ([1]; Capan-1, R1, 10000 nM): 882520 | Reponse ([1]; Capan-1, R2, 13.72 nM): 1725080 | Reponse ([1]; Capan-1, R2, 41.15 nM): 1554080 | Reponse ([1]; Capan-1, R2, […] nM): 1198840 | Reponse ([1]; Capan-1, R2, 370.37 nM): 1201400 | Reponse ([1]; Capan-1, R2, 1111.11 nM): 991280 | Reponse ([1]; Capan-1, R2, 3333.33 nM): 798760 | Reponse ([1]; Capan-1, R2, 10000 nM): 1054200 | Curve bottom ([1]; Capan-1, GEM curve fit): 0.16 | Curve effect size ([1]; Capan-1, GEM curve fit): 0.84 | Curve slope ([1]; Capan-1, GEM curve fit): 1.86 | Curve top ([1]; Capan-1, GEM curve fit): 1.03 | AUC ([1]; Capan-1, GEM curve fit, in %): 31.71 | EC50 ([1]; read-out: EC50): 1.26 nM | EC50 ([1]; read-out: pEC50 (converted)): 1.26 nM | Reponse ([2]; Dan-G, R1, 13.72 nM): 414760 | Reponse ([2]; Dan-G, R1, 41.15 nM): 446720 | Reponse ([2]; Dan-G, R1, […] nM): 403560 | Reponse ([2]; Dan-G, R1, 370.37 nM): 418200 | Reponse ([2]; Dan-G, R1, 1111.11 nM): 322600 | Reponse ([2]; Dan-G, R1, 3333.33 nM): 330080 | Reponse ([2]; Dan-G, R1, 10000 nM): 365160 | Reponse ([2]; Dan-G, R2, 13.72 nM): 688800 | Reponse ([2]; Dan-G, R2, 41.15 nM): 616960 | Reponse ([2]; Dan-G, R2, […] nM): 613120 | Reponse ([2]; Dan-G, R2, 370.37 nM): 664240 | Reponse ([2]; Dan-G, R2, 1111.11 nM): 563000 | Reponse ([2]; Dan-G, R2, 3333.33 nM): 536360 | Reponse ([2]; Dan-G, R2, 10000 nM): 535080 | Curve bottom ([2]; Dan-G, GEM curve fit): 0.11 | Curve effect size ([2]; Dan-G, GEM curve fit): 0.89 | Curve slope ([2]; Dan-G, GEM curve fit): 3.23 | Curve top ([2]; Dan-G, GEM curve fit): 0.99 | AUC ([2]; Dan-G, GEM curve fit, in %): 25.98 | EC50 ([2]; read-out: EC50): 1.1 nM | EC50 ([2]; read-out: pEC50 (converted)): 1.1 nM | Reponse ([3]; FAMPAC, R1, 13.72 nM): 385920 | Reponse ([3]; FAMPAC, R1, 41.15 nM): 215680 | Reponse ([3]; FAMPAC, R1, […] nM): 157840 | Reponse ([3]; FAMPAC, R1, 370.37 nM): 175320 | Reponse ([3]; FAMPAC, R1, 1111.11 nM): 225320 | Reponse ([3]; FAMPAC, R1, 3333.33 nM): 238760 | Reponse ([3]; FAMPAC, R1, 10000 nM): 195520 | Reponse ([3]; FAMPAC, R2, 13.72 nM): 606360 | Reponse ([3]; FAMPAC, R2, 41.15 nM): 377000 | Reponse ([3]; FAMPAC, R2, […] nM): 333400 | Reponse ([3]; FAMPAC, R2, 370.37 nM): 317560 | Reponse ([3]; FAMPAC, R2, 1111.11 nM): 328240 | Reponse ([3]; FAMPAC, R2, 3333.33 nM): 349400 | Reponse ([3]; FAMPAC, R2, 10000 nM): 314920 | Curve bottom ([3]; FAMPAC, GEM curve fit): 0.05 | Curve effect size ([3]; FAMPAC, GEM curve fit): 0.95 | Curve slope ([3]; FAMPAC, GEM curve fit): 2.01 | Curve top ([3]; FAMPAC, GEM curve fit): 0.99 | AUC ([3]; FAMPAC, GEM curve fit, in %): 25.43 | EC50 ([3]; read-out: EC50): 1.71 nM | EC50 ([3]; read-out: pEC50 (converted)): 1.7 nM

SMILES: COc1cc(N2CCC(N3CCN(C)CC3)CC2)ccc1Nc1ncc(Cl)c(Nc2ccccc2P(C)(C)=O)n1 [Brigatinib]
EC50 [4]: 686 nM | pKDapp [4]: 6.35 | Kd ([4]; read-out: KDapp): 444 nM

SMILES: C[C@]12O[C@H](C[C@]1(O)CO)n1c3ccccc3c3c4c(c5c6ccccc6n2c5c31)CNC4=O [Lestaurtinib]
EC50 [5]: 1400 nM | EC50 [6]: […]

Kd [7]: 10 to 20 nM
SMILES: Nc1nn2cc(F)cnc2c1C(=O)Nc1cncc(F)c1N1CCC(C(=O)N2CCN(C3COC3)CC2)CC1 [Gartisertib]
